In PubChem BioAssay AID2253 (Southern Research Specialized Biocontainment Screening …, 2010) one finds EC50 data, which are given here for 38 compounds.

The test system of the assay is THP-1 viability, CellTiter-Glo luminescence, 72 h. Nature of the assay: human monocytic cell viability reduction – S. typhimurium screen hits, cytotoxicity control for Salmonella PhoP regulon inhibitors, dose response (AID 2253).

Turning to `Cc1ccc(SC(c2ccc(C)cc2)C(Cn2cncn2)C(=O)c2ccccc2)cc1` (stereo not drawn), the EC50 was 49.8 µM.

For the compound `O=C1c2ccccc2NC(c2ccc(-c3cccc(Cl)c3)o2)N1O` (stereo not drawn), the EC50 is 24.6 µM.

As to `O=C(OCC1O[C@@H](OC(=O)c2cc(O)c(O)c(O)c2)[C@@H](OC(=O)c2cc(O)c(O)c(O)c2)[C@@H](OC(=O)c2cc(O)c(O)c(O)c2)[C@@H]1OC(=O)c1cc(O)c(O)c(O)c1)c1cc(O)c(O)c(O)c1` (stereo partly drawn), the EC50 is 14 µM.

Take `C#CCOc1ccc(/C=C2\SC(=S)N(Cc3cccnc3)C2=O)cc1`: the EC50 was 5.67 µM.

As to `COc1ccc(-c2csc(NCc3ccco3)n2)cc1`, the EC50 is 38.5 µM.

As to `COc1ccc(OC)c(C2=Nn3c(nnc3-c3cc(OC)c(OC)c(OC)c3)SC2)c1`, the 50% effective concentration (EC50) was 22.6 µM.

On to `Oc1c(CN2CCCCC2)cc(COCc2ccccc2)c2cccnc12`, for which the EC50 was 6 µM.

Turning to `N#C/C(=C\c1ccc(F)c(F)c1)C(=O)NC1CCCCC1`, the EC50 is 46.6 µM.

`Cc1ccc2nc(C)c(CN3CCN(c4ccc([N+](=O)[O-])cc4Cl)CC3)n2c1`: the EC50 is 19.7 µM.

Regarding `COc1ccccc1-n1c(SCc2cc(=O)oc3cc(O)ccc23)nc2ccccc2c1=O`, the EC50 is 21.6 µM.

For the compound `C/C(=N\NC(=S)Nc1ccc(F)cc1)c1ccc2c(c1)OCCO2`, the EC50 was 10.5 µM.

As for `CCN(CC(=O)NC(C)(C)C)C(=O)COc1c(Cl)cc(Cl)c2ccc(C)nc12`, the EC50 was 37.3 µM.

With `O=c1[nH][nH]c(-c2ccccc2O)c1C(C[N+](=O)[O-])c1cccc(Cl)c1` (stereo not drawn), the 50% effective concentration (EC50) was 33.4 µM.

`NCCCC[C@H]1CN=C(N)N1CCC12CC3CC(CC(C3)C1)C2`: the EC50 is 33.1 µM.

For the compound `C(=Nc1ccc(Nc2ccccc2)cc1)c1ccc2ccccc2c1`, the EC50 was 25.8 µM.

Consider `CCCCCCCCCCCCCCCC[N+](C)(C)CCN(Cc1ccc(OC)cc1)c1ncccn1`, for which the EC50 is 0.51 µM.

`S=C(NCc1cccnc1)Nc1ccc(Cl)c(Cl)c1`: the EC50 was 40 µM.

Regarding `COc1c(N2CCN(C(=S)NCc3ccccc3)C(C)C2)c(F)cc2c(=O)c(C(=O)O)cn(C3CC3)c12` (stereo not drawn), the concentration giving a half-maximal response (EC50) was 15.4 µM.

For `O=Cc1ccc(O)c2ncccc12`, the EC50 is 3.79 µM.

With `CCCCCCCSc1cc(OC)c(CCN(C)C)cc1OC`, the EC50 was 14.1 µM.

`COC(=O)c1c(C)oc2ccc(NS(=O)(=O)c3cccs3)cc12`: the EC50 is 48.4 µM.

For `Cc1onc(-c2ccccc2)c1C(=O)NC(=S)NNC(=O)c1ccc(O)cc1O`, the EC50 is 1.87 µM.

Consider `O=C(N/N=C\c1cccc([N+](=O)[O-])c1O)C1COc2ccccc2O1` (stereo not drawn), for which the EC50 is 21.5 µM.

Turning to `O=S(=O)(Nc1cc(Sc2cccc3cccnc23)c(O)c2ccccc12)c1ccc(F)cc1`, the concentration giving a half-maximal response (EC50) was 2.82 µM.

For the compound `Cc1ccc(S(=O)(=O)/N=C2/C=C(Sc3ncn[nH]3)C(=O)c3ccccc32)c(C)c1`, the half-maximal effective concentration (EC50) is 5.51 µM.

For the compound `CCCCNCCCOc1cccc(Cl)c1Cl`, the EC50 is 29.2 µM.

As for `Cc1ccc(C(C[N+](=O)[O-])c2c(N)n(C)c(=O)n(C)c2=O)cc1` (stereo not drawn), the EC50 is 34.2 µM.

For `O=C(Cn1nc(CNc2ccc(Cl)cc2)[n+]2c1CCCCC2)c1ccc(Br)cc1`, the EC50 is 11.6 µM.

With `N#C/C(=C\c1c(Cl)cccc1Cl)c1nc2ccccc2[nH]1`, the concentration for a half-maximal effect (EC50) is 27.9 µM.

`CN(Cc1ccccc1)CC(O)COc1ccc(CNCc2ccc(Cl)s2)cc1` (stereo not drawn): the concentration giving a half-maximal response (EC50) was 33.4 µM.

For the compound `c1ccc(Nc2ccnc(Nc3ccccc3)n2)cc1`, the EC50 was 35 µM.

As for `O=C(C[n+]1cc(-c2ccc(Cl)cc2)n2c1CCC2)Nc1nc(-c2ccccc2)cs1`, the 50% effective concentration (EC50) was 43.3 µM.

As to `OC1(c2cccc(C(F)(F)F)c2)CCN(c2ncnc3c2[nH]c2ccccc23)CC1`, the EC50 is 17.6 µM.

For `C1CCC(C(CC2CCCCN2)C2CCCCC2)CC1` (stereo not drawn), the EC50 was 5.45 µM.

In the case of `COc1ccc(C(=O)On2c(-c3ccc(Br)cc3)nc3ccccc3c2=O)cc1`, the EC50 was 12.8 µM.

`C(=C\c1ccccc1)/C=N/Nc1nc2ccccc2[nH]1`: the EC50 is 15.5 µM.

As to `COc1ccc(C)cc1C(=O)CCC(=O)Nc1ccccc1N1CCOCC1`, the EC50 was 8.33 µM.

Take `CCCCCCCCCCOC(=O)C[N+](C)(C)C/C=C(/C)Cl`: the EC50 is 8.56 µM.

By EC50 is commonly meant the midpoint of the concentration-response curve.
